Assay results taken from patent US20210330611A1, “THERAPY FOR NEUROLOGICAL DISEASES/DISORDERS” (priority 2020, published 2021).
Where a name gives a salt, the structure may show the parent alone. Read-outs that look alike come from different tables or passages of the source.

What was measured:
primary rat microglia [1] = tested on: primary rat microglia;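 for Fibrin % cell toxicity: share of dead cells sized under 150 µm2 at 10 µM in fibrin-stimulated microglia HTS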
primary rat microglia [2] = tested on: primary rat microglia; remark: listed apart in the source;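 for Fibrin % cell toxicity: share of dead cells sized under 150 µm2 at 10 µM in fibrin-stimulated microglia HTS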
[3] = tested on: LPS-induced microglia activation; experiment: Image-based assay of LPS-induced microglia activation (HTS and dose response); type: cell-based, rat; conditions: for inhibition at 10 µM: Rattus norvegicus, Microglia, read-out: LPS % inhibition
[4] = tested on: fibrin- and LPS-induced microglia activation; experiment: cells; type: cell-based, rat
[5] = tested on: fibrin-induced microglia activation; experiment: Image-based assay of fibrin-induced microglia activation (HTS and dose response); type: cell-based, rat; conditions: for inhibition at 10 µM: Rattus norvegicus, Microglia, read-out: Fibrin % inhibition
[6] = primary microglia HTS, LPS stimulation, compounds at 10 μM
[7] = primary microglia HTS, fibrin stimulation, compounds at 10 μM
[8] = quadrant by fibrin and LPS inhibition, HTS at 10 μM
[9] = 48 h, primary microglia HTS, LPS stimulation, increased cell size (>800 μm^2) as marker of activation
[10] = quadrant by fibrin and LPS inhibition in HTS of 1907 compounds
[11] = primary microglia HTS, fibrin stimulation, increased cell size (>800 μm^2) as marker of activation

Cc1cc2c(s1)Nc1ccccc1N=C2N1CCN(C)CC1 [Olanzapine]
Fibrin % cell toxicity (primary rat microglia [1]; rat): 1% | LPS % cell toxicity (primary rat microglia [2]; rat): 0% | inhibition at 10 µM ([3]; 48 h): 9% | Quadrant (FIG. 5b) [4]: Q4 | inhibition at 10 µM [5]: 6%

O=C(O)c1cc(-c2ccc(F)cc2F)ccc1O [Diflunisal]
Fibrin % cell toxicity (primary rat microglia [1]; rat): 0% | LPS % cell toxicity (primary rat microglia [2]; rat): 0% | inhibition at 10 µM [3, 6]: 15% | Quadrant (FIG. 5b) ([4]; classification by fibrin and LPS inhibition, HTS at 10 μM): Q4 | inhibition at 10 µM [5, 7]: -62%

CO[C@@]12[C@H](COC(N)=O)C3=C(C(=O)C(C)=C(N)C3=O)N1C[C@@H]1N[C@@H]12 [Mitomycin C, Mitomycin]
Fibrin % cell toxicity (primary rat microglia [1]): 74% | LPS % cell toxicity (primary rat microglia [2]): 49% | LPS % inhibition ([3]; 10 µM): 110% | Quadrant (FIG. 5b) [4]: Q2 | Fibrin % inhibition ([5]; 10 µM): 112%

CC(C)CN(C[C@@H](O)[C@H](Cc1ccccc1)NC(=O)O[C@H]1CCOC1)S(=O)(=O)c1ccc(N)cc1 [Amprenavir]
Fibrin % cell toxicity (primary rat microglia [1]; rat): 1% | LPS % cell toxicity (primary rat microglia [2]; rat): 0% | inhibition at 10 µM [3, 6]: 6% | Quadrant (FIG. 5b) [4, 8]: Q4 | inhibition at 10 µM [5, 7]: -10%

CC(C)COCC(CN(Cc1ccccc1)c1ccccc1)N1CCCC1 (stereo not shown) [Bepridil]
Fibrin % cell toxicity (primary rat microglia [1]; rat): 1% | LPS % cell toxicity (primary rat microglia [2]; rat): 0% | inhibition at 10 µM ([3]; primary HTS, 10 μM, LPS-stimulated primary microglia): 15% | Quadrant (FIG. 5b) ([4]; primary HTS, 10 μM): Q4 | inhibition at 10 µM ([5]; primary HTS, 10 μM, fibrin-stimulated primary microglia): 1%

CC(=O)NC[C@H]1CN(c2ccc(N3CCOCC3)c(F)c2)C(=O)O1 [Linezolid]
Fibrin % cell toxicity (primary rat microglia [1]; rat): 1% | LPS % cell toxicity (primary rat microglia [2]; rat): 0% | inhibition at 10 µM ([3]; 48 h): 19% | Quadrant (FIG. 5b) [4]: Q4 | inhibition at 10 µM [5]: -18%

Cc1cn(-c2cc(NC(=O)c3ccc(C)c(Nc4nccc(-c5cccnc5)n4)c3)cc(C(F)(F)F)c2)cn1 [Nilotinib]
Fibrin % cell toxicity (primary rat microglia [1]; rat): 1% | LPS % cell toxicity (primary rat microglia [2]; rat): 1% | inhibition at 10 µM [3, 9]: 17% | Quadrant (FIG. 5b) [4, 10]: Q4 | inhibition at 10 µM [5, 11]: -35%

CC(C)C(=O)Nc1ccc([N+](=O)[O-])c(C(F)(F)F)c1 [Flutamide]
Fibrin % cell toxicity (primary rat microglia [1]; rat): 1% | LPS % cell toxicity (primary rat microglia [2]; rat): 0% | inhibition at 10 µM ([3]; 48 h, primary microglia HTS, LPS stimulation, activation = cell size >800 μm2): 23% | Quadrant (FIG. 5b) [4, 10]: Q4 | inhibition at 10 µM ([5]; primary microglia HTS, fibrin stimulation, activation = cell size >800 μm2): 15%

Cc1ccc(/C(=C\CN2CCCC2)c2ccccn2)cc1 [Triprolidine]
Fibrin % cell toxicity (primary rat microglia [1]; rat): 1% | LPS % cell toxicity (primary rat microglia [2]; rat): 0% | inhibition at 10 µM ([3]; primary microglia HTS, 10 μM, LPS-stimulated, cell size >800 μm^2 as marker of activation): 23% | Quadrant (FIG. 5b) ([4]; HTS of 1907 compounds, quadrant by fibrin and LPS inhibition): Q4 | inhibition at 10 µM ([5]; primary microglia HTS, 10 μM, fibrin-stimulated, cell size >800 μm^2 as marker of activation): -24%

CC[C@]1(O)C[C@@H]2CN(CCc3c([nH]c4ccccc34)[C@@](C(=O)OC)(c3cc4c(cc3OC)N(C)[C@H]3[C@@](O)(C(N)=O)[C@H](O)[C@]5(CC)C=CCN6CC[C@]43[C@@H]65)C2)C1 [Vindesine, Vindesine Sulfate]
Fibrin % cell toxicity (primary rat microglia [1]): 30% | LPS % cell toxicity (primary rat microglia [2]): 9% | LPS % inhibition ([3]; 10 µM): 102% | Quadrant (FIG. 5b) [4]: Q2 | Fibrin % inhibition ([5]; 10 µM): 106%

c1ccc([C@H]2CN3CCSC3=N2)cc1 [Levamisole]
Fibrin % cell toxicity (primary rat microglia [1]; rat): 0% | LPS % cell toxicity (primary rat microglia [2]; rat): 0% | inhibition at 10 µM ([3]; 48 h): 12% | Quadrant (FIG. 5b) [4]: Q4 | inhibition at 10 µM [5]: -15%

OC(CNCC(O)C1CCc2cc(F)ccc2O1)C1CCc2cc(F)ccc2O1 (stereo not shown) [Nebivolol]
Fibrin % cell toxicity (primary rat microglia [1]; rat): 1% | LPS % cell toxicity (primary rat microglia [2]; rat): 0% | inhibition at 10 µM [3, 9]: 6% | Quadrant (FIG. 5b) [4, 10]: Q4 | inhibition at 10 µM [5, 11]: -10%

C[C@H]1O[C@@H](n2cc(F)c(=O)[nH]c2=O)[C@H](O)[C@@H]1O [5-fluoro-5′-deoxyuridine, Doxifluridine]
Fibrin % cell toxicity (primary rat microglia [1]): 1% | LPS % cell toxicity (primary rat microglia [2]): 0% | LPS % inhibition [3, 6]: 9% | Quadrant (FIG. 5b) [4, 8]: Q4 | Fibrin % inhibition [5, 7]: −27%

O=C(NCC(O)CO)c1c(I)c(C(=O)NCC(O)CO)c(I)c(N(CCO)C(=O)CO)c1I (stereo not shown) [Ioversol]
Fibrin % cell toxicity (primary rat microglia [1]; rat): 1% | LPS % cell toxicity (primary rat microglia [2]; rat): 1% | inhibition at 10 µM ([3]; 48 h): 18% | Quadrant (FIG. 5b) [4]: Q4 | inhibition at 10 µM [5]: -1%
